Experimental data as given in patent publication US20230172971A1, “ANTIBIOTIC AND ANTI-INFLAMMATORY COMPOSITIONS AND METHODS OF USE” (priority 2020, published 2023).

Assays:
E. coli BAA-2452 = assay: H33342 bisbenzimide dye uptake assay, E. coli BAA-2452; format: cell-based, Escherichia coli; settings: E. coli BAA-2452, 7×10^8 CFU/mL, non-lethal concentration
Protocol: Overnight culture of E. coli BAA-2452™ and K. pneumoniae BAA-2146™ were used to inoculate fresh CAMHB media for another 5 hr at 35° C. with shaking. Bacterial cells were collected by centrifugation at 6000 rpm for 40 min and resuspended in PBS. The OD600 of the cell suspension was adjusted to about 1.0 and kept at room temperature during the experiment. Aliquots (180 μL/well) of the cell suspension were transferred to a 96-well flat-bottom black plate in the format of column 1, PBS blank; column 2, untreated control cells; column 3, cells+potentiator (sub-lethal concentration). Five technical replicates of each group were conducted. Fluorescent probe Hoechst 33342 bisbenzimide (H33342) was added (20 μL) to each well with a final concentration of 5 μM. Fluorescence was read immediately after the addition of H33342 by a Tecan Infinite M20 plate reader with the excitation and emission filters of 355 and 460 nm for H33342. Fluorescence data were normalized to the emission before cells were added in the PBS control, and they were plotted against time to show the cellular uptake of H33342 over 10 min. Control experiments of dye+600-Da BPEI were unchanged from fluorescence emission values obtained with dye only.

MRSA OU11 = assay: Resazurin cell viability assay, MRSA OU11; format: cell-based, Staphylococcus aureus
Protocol: Cell viability assays with resazurin were performed with MRSA OU11 cells grown in TSB as similar to the procedure of cell-permeation assays until they reach a density of ˜7×10^9 CFU/mL. Then the cell culture was transferred into a 96-well plate (100 μL/well) for BPEI or polymyxin B (PmB) treatments at varied concentrations from 64-512 μg/mL. Controls of untreated and positive control of 5% bleach were also conducted. The plate was incubated at 37° C. overnight. Resazurin (50 μL; final concentration of 50 μg/mL) was then added and, after 1 hour of incubation, the fluorescence intensity was measured (λex=560 nm; λen, =590 nm).

Gram-negative bacteria = settings: paradigm; cited from earlier work
Gram-positive bacteria = settings: paradigm; cited from earlier work

For polymyxin B, the “intracellular accumulation of H33342 (fluorescence) vs untreated cells” value (E. coli BAA-2452) was “increases”, the “cell viability (resazurin)” value (MRSA OU11; MRSA OU11, 64 μg/mL PmB) was “greater cell death than 512 μg/mL 600-Da BPEI” and the “cell viability (resazurin)” value (MRSA OU11; MRSA OU11, 512 μg/mL PmB) was “complete loss of MRSA OU11 viability”. For the same substance, the “cell viability (resazurin)” value (MRSA OU11; MRSA OU11, ~7×10^9 CFU/mL, 64-512 μg/mL, overnight) was “more lethal”, the MIC (Gram-negative bacteria) was at most 2 µg/mL and the “concentration required (MIC)” value (Gram-positive bacteria) was at least 32 µg/mL.
